Data on eleven compounds can be found in US20030220524A1, “Sulfur containing compounds” (priority 2000, published 2003).

Format in all cases: cell-based, human
The subject of assay [1] is AML-3 leukemic cell line. Description: TUNEL, flow cytometry. The arrangement: unit: %. Particulars: 48 h. The protocol:
(§1) Adherent cell lines were plated at 35×10^4 cells/60 cm^2 dish the day before exposure to compound. Suspension cells were seeded at 25×10^4 cells/mL in a 6 well dish (Falcon) the day of exposure to compound. Mononucleated, T-cell depleted normal bone marrow cells were seeded at 50×10^4 cells/mL in a 6 well dish the day of exposure to compound. Cells were exposed to solvent control or approximate MTT50 and MTT30 concentrations of the compound. After 48 h of exposure to the compound, cells were harvested and fixed with a final concentration of 4% formaldehyde. Fixed cells were stored at −20° C. in 70% ethanol for no more than 5 days. Approximately 10^5 cells were pelleted and labeled with 0.02 mM Biotin-dUTP and 12.5 U TdT enzyme in a 1× reaction buffer (200 mM potassium cacodylate, 25 mM Tris-HCl, 25 μg/mL bovine serum albumin, pH 6.6), 2.5 mM CoCl2 and 0.01 mM dTTP (Roche Molecular Biochemicals, Laval, QC, Canada) for 45 min at 37° C. Samples were washed and incubated in 200 μL of 1:1000 fluorescein isothiocyanate (FITC)-conjugated avidin (Sigma) in 4×SSC, 5% skim milk powder and 0.05% Tween-20 (Sigma). Following 1 h of mixing at room temperature, the samples were washed and resuspended in 500 μL of D-PBS containing 2.5 μg/mL DNase-free RNase (Boehringer Mannheim) and 10 μg/mL PI. Following a 30 min incubation at room temperature, cells were analyzed using a XL-MCL flow cytometer (Coulter Corporation, Miami, Fla.) and a FACScalibar cytometer (Becton Dickinson, San Jose, Calif.). Profiles shown are representative of one experiment.
as §1, with “? s” for “Cells”, “appr ? nate” for “approximate”, “of” for “of the”, “Pl.” for “PI.”
(In general: In flow cytometry, cells or beads pass a laser one at a time.)

Assay [2] concerns leukemic cells. The assay can be described thus: Cell cycle and apoptosis by fixed PI and TUNEL. Particulars: in words. The protocol: Adherent cell lines were plated at 35×10^4 cells/60 cm^2 dish the day before exposure to compound. Suspension cells were seeded at 25×10^4 cells/mL in a 6 well dish (Falcon) the day of exposure to compound. Mononucleated, T-cell depleted normal bone marrow cells were seeded at 50×10^4 cells/mL in a 6 well dish the day of exposure to compound. Cells were exposed to solvent control or approximate MTT50 and MTT30 concentrations of the compound. After 48 h of exposure to the compound, cells were harvested, fixed in 80% ethanol for 1 h on ice and labeled with 50 μg/mL propidium iodide (Sigma). Approximately 10^6 cells were analyzed using a XL-MCL flow cytometer (Coulter Corporation, Miami, Fla.) and a FACScalibar cytometer (Becton Dickinson, San Jose, Calif.). Profiles shown are a representative.
as §1

The subject of assay [3] is B1 leukemic cell line. Description: TUNEL, flow cytometry. Conditions: 48 h. The protocol: as §1
as §1, with “? s” for “Cells”, “appr ? nate” for “approximate”, “of” for “of the”, “Pl.” for “PI.”

The subject of assay [4] is NB-4 leukemic cell line. Description: TUNEL, flow cytometry. Particulars: 48 h. The protocol:
as §1
as §1, with “? s” for “Cells”, “appr ? nate” for “approximate”, “of” for “of the”, “Pl.” for “PI.”

Assay [5] relates to WI38 non-transformed diploid fibroblasts. The assay can be described thus: TUNEL, flow cytometry. Conditions: 48 h. How it is done: as §1
as §1, with “? s” for “Cells”, “appr ? nate” for “approximate”, “of” for “of the”, “Pl.” for “PI.”

The subject of assay [6] is G2 leukemic cell line. Description: TUNEL, flow cytometry. Conditions: 48 h. How it is done: as §1
as §1, with “? s” for “Cells”, “appr ? nate” for “approximate”, “of” for “of the”, “Pl.” for “PI.”

Consider `CSCSCS(C)(=O)=O` [B], for which the “TUNEL FITC +ve” value in assay [1] (dose 107 uM (20 ug/mL)) amounted to 3.85.
Regarding `CSSCS(=O)(=O)c1ccc(C)cc1` [Compound C, α-p-toluenesulfonyl dimethyl disulphide], in assay [1] (dose 20.2 uM (10 ug/mL)), the “TUNEL FITC +ve” value worked out at 22.4. Further, in assay [2], the “Cell cycle effect / apoptosis of leukemic cells (fixed PI and TUNEL)” value (“Cell cycle effect / apoptosis” for short) is recorded as “undergo apoptosis in all the phases of the cell cycle”.
On to `CSCSSC` [Compound N, 2,3,5-trithiahexane], for which the “% TUNEL +ve” value in assay [3] (dose 50 uM) was found to be 49%; in assay [3] (dose 100 uM) it was 44%; in assay [4] (dose 50 uM), 17%; in assay [4] (dose 100 uM), 19%; in assay [5] (dose 50 uM), 0.7%; in assay [5] (dose 100 uM) it was 2%. Moreover, the “% TUNEL +ve” value in assay [6] (dose 50 uM) was 18%; in assay [6] (dose 100 uM), 19%.
Turning to `CSSCC(=O)c1ccccc1` [Compound P, phenacyl methyl disulphide], the “% TUNEL +ve” value was determined as 39% in assay [3] (dose 50 uM); 67% in assay [3] (dose 100 uM); 24% in assay [4] (dose 50 uM); 0.2% in assay [4] (dose 100 uM); 0.70% in assay [5] (dose 50 uM); 1.7% in assay [5] (dose 100 uM). Moreover, the figures for the “% TUNEL +ve” value in assay [6] (dose 50 uM) and in assay [6] (dose 100 uM) were 17% and 53%, respectively.
On to `CCC(=O)OCSSc1ccccc1` [Compound Q, 1-phenyl-1,2-dithiapropyl propionate], for which the “% TUNEL +ve” value in assay [3] (dose 25 uM) worked out at 32%; in assay [3] (dose 50 uM), 78%; in assay [4] (dose 50 uM), 16%; in assay [5] (dose 25 uM), 4%; in assay [5] (dose 50 uM) it was 0.2%; in assay [6] (dose 25 uM) it was 23%. The “% TUNEL +ve” value in assay [6] (dose 50 uM) was determined as 58%.
In the case of `c1ccc(SSc2ccccc2)cc1` [D, diphenyl disulphide], the “Cell cycle effect / apoptosis” value in assay [2] is “undergo apoptosis in all the phases of the cell cycle”.
On the same count and under the same terms, with `CS(=O)(=O)CSSc1ccccc1` [E, 5-phenyl-2,4,5-trithiapentane 2,2-dioxide] the entry was “undergo apoptosis in all the phases of the cell cycle”.
In the case of `CSSCCS(C)(=O)=O` [F, 2,3,6-trithiaheptane 6,6,-dioxide], the “TUNEL FITC +ve” value in assay [1] (dose 45.8 uM (10 ug/mL)) turned out to be 31.9. The “Cell cycle effect / apoptosis” value in assay [2] is given as “accumulation of leukemic cells in the G2/M phase of the cell cycle prior to the cells undergoing apoptosis”.
For the compound `CS(=O)(=O)CSCS(C)(=O)=O` [G, 2,4,6-trithiaheptane 2,2,6,6-tetraoxide], in assay [1] (dose 45.8 uM (10 ug/mL)), the “TUNEL FITC +ve” value is reported as 3.0.
For `COC(=O)CSSC` [H, methyl 3,4-dithiopentanoate], in assay [1] (dose 65.7 uM (10 ug/mL)), the “TUNEL FITC +ve” value was 10.2. For the same compound, the “Cell cycle effect / apoptosis” value in assay [2] was “accumulation of leukemic cells in the G2/M phase of the cell cycle prior to the cells undergoing apoptosis”.
In the case of `CSSCOC(C)=O` [I, 2,3-dithiabutyl acetate], the “TUNEL FITC +ve” value in assay [1] (dose 32.8 uM (5 ug/mL)) worked out at 57.3. Further, the “Cell cycle effect / apoptosis” value in assay [2] was “undergo apoptosis in all the phases of the cell cycle”.
